Source: patent US9539298B2, “Lissencephaly therapeutic agent” (OSAKA CITY UNIVERSITY, priority 2010, dated 2017)

Tests used:
[1] = molecular target: m-calpain (derived from porcine kidney) (Sus scrofa, UniProt I3LQD3); test: Measurement of inhibitory activity against m-calpain; assay type: biochemical; conditions: casein substrate, 30° C., 60 minutes; read-out: enzyme inhibitory activities (μM) m-calpain
Experimental: More specifically, 200 μL of a reaction solution containing 0.5 mg/mL casein, 50 mM Tris-HCl buffer (pH 7.4), 20 mM dithiothreitol and 1.0 nmol μ-calpain (derived from human red blood cells, Cosmo Bio Co., Ltd.) or m-calpain (derived from porcine kidney, Cosmo Bio Co., Ltd.) was added to individual 2.5 μL portions of DMSO solution containing a varying concentration of a test sample in a 96-well plate. Then, 50 μL of 20 mM aqueous calcium chloride was added thereto, and reaction was performed at 30° C. for 60 minutes. 100 μL of the reaction solution was transferred to another 96-well plate, and purified water (50 μL) and 50% aqueous solution (100 μL) of Protein Assay Dye Reagent (available from Bio-Rad Laboratories, Inc.; catalogue No. 500-600) were added thereto. […] The absorbance of a reaction mixture prepared in the same manner as mentioned above, except that a DMSO solution containing no sample was used as a control value; and the absorbance of a reaction mixture prepared in the same manner as mentioned above, except that a 1 mM aqueous EDTA solution (50 μL) was used in place of 20 mM aqueous calcium chloride, was used as a blank value. […] Inhibition rate (%){1−(measured value−blank test value)/(control value−blank test value)}×100

[2] = tested on: nerve cells from cerebellums of FVB mice; test: Analysis of toxicity of calpain inhibitors on cultured cerebellar nerve cells; assay type: cell-based, mouse
Experimental: The cerebellums were removed from 4- to 5-day-old FVB mice (15 mice). In a Ca^2+-free Hank's Balanced Salt Solution (CF-HBSS; Ca^2+, Mg^2+-free Hank's Balanced Salt Solution (CMF-HBBS, Sigma) containing 5 mM magnesium chloride (MgCl2, Wako) and 4 mg/mL glucose (Wako)), the meninges were removed and cut into pieces. After the cerebellum fragments were washed with CF-HBSS, the fragments were allowed to stand for 20 minutes at 37° C. in CF-HBSS containing 0.025% trypsin (Invitrogen) and 6.25 μg/mL deoxyribonuclease (DNase, Sigma), and then centrifuged. The resulting tissues were washed with 10% HS/BME (DNase Medium; obtained by adding 5 mM MgCl2 and 25 μg/mL DNase to Basal Medium Eagle (BME, Invitrogen) containing 10% Horse Serum (HS, Invitrogen)) and centrifuged. DNase medium was added to the cells, and the cells were transferred to a 24-well plate (Nunc). The cells were kept still for 30 minutes at 37′C under an atmospheric environment of 5% CO2, thereby suspending the cells. The cell suspension was isolated, and then washed with 10% HS/BME. The suspension was transferred again to a 24-well plate to be cultured for 16 hours at 37° C. under an atmospheric environment of 5% CO2. The cells were collected to BME containing 1% Bovine Serum Albumin (BSA, Sigma) and 0.5% N2 supplement (Invitrogen), and the cell suspension was seeded on a 35 mm glass base dish (Iwaki) coated beforehand with poly-L-lysine (Sigma) and laminin (Sigma) in an amount of […]. The cells were cultured for 8 hours at 37° C. under an atmospheric environment of 5% CO2. The cultured nerve cells were used as test nerve cells.
A culture solution (10% HS/BME) containing SNJ-1945, E64d, or ALLN was prepared in the following manner. SNJ-1945 dissolved in dimethyl sulfoxide (Sigma, D-5879) was mixed with a culture solution so that the final concentration became 200 μM, and was kept still for an hour at 37° C., thereby completely dissolving SNJ-1945 in the culture medium. ALLN and E64d were also dissolved in culture media in the same manner, except that ALLN and E64d were added to the culture media to final concentrations of 50 μM and 100 μM, respectively. The culture media in which the components were dissolved were added to the test nerve cells prepared above in an amount of 2 ml/well, and the cells were cultured for 16 hours. As a control, the same culture was conducted using a culture medium containing the same amount of dimethyl sulfoxide (Sigma, D-5879). After culture, the cells were observed using an inverted microscope (TCS FP5S, Leica). A 20× objective lens was used. Images were taken using dedicated software (LAS AF, Leica) under the condition of 512×512 pixels.

[3] = tested on: LIS1 heterozygous adult mice; test: LIS1 protein in adult mouse brains after SNJ-1945 intraperitoneal administration; assay type: in vivo; conditions: three weeks after birth
Experimental: SNJ-1945 was dissolved in dimethyl sulfoxide (DMSO) at a concentration of 100 mg/ml, and intraperitoneally injected to LIS1 heterozygous mice so that the administration amount was 100 μg/per gram of body weight at the time of three weeks after birth. To determine the effect of SNJ-1945 administration, LIS1 proteins of normal adult mice and LIS1 heterozygous adult mice (administered with SNJ-1945) were measured. In the SNJ-1945 administration group, the brain tissues were taken at 0 hour (immediately after the administration), 1 hour, 2 hours, 4 hours, 8 hours, 12 hours, 16 hours, 24 hours, 48 hours, and 72 hours after the administration to measure LIS1 protein, so as to determine the effect of SNJ-1945 over time. Six mice for each group were used for the measurement of LIS1 protein (n=6).
For the measurement of LIS1 protein amount, the weight of the brains was immediately measured as soon as the brains were removed.

Sequence of m-calpain (derived from porcine kidney) (I3LQD3 entry or part of it): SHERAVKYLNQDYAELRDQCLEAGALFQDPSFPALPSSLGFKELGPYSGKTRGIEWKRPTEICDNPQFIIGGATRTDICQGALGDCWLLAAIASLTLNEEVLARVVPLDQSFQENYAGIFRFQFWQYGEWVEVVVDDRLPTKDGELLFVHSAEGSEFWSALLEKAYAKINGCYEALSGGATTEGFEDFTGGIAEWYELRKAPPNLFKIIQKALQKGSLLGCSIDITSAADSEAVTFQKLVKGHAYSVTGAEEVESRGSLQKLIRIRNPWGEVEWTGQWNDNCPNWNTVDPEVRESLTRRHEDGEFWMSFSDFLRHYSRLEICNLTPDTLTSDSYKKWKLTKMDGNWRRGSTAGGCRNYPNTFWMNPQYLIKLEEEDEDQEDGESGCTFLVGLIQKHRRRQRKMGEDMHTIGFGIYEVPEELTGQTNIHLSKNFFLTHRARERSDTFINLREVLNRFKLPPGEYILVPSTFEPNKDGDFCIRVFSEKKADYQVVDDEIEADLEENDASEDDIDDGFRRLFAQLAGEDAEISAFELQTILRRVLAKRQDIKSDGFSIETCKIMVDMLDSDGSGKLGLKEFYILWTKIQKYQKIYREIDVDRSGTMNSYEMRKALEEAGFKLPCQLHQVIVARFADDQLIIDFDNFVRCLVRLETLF
Sequence of m-calpain (derived from porcine kidney) (P04574 whole entry, further chain): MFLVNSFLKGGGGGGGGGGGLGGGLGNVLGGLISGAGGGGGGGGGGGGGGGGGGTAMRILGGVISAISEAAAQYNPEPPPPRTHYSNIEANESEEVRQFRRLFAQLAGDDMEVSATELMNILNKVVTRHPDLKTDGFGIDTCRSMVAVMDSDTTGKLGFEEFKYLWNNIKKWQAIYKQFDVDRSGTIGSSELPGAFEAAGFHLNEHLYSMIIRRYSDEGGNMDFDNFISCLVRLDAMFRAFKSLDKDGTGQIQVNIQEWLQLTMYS

With `COCCOCCOC(=O)N[C@@H](CC(C)C)C(=O)N[C@@H](Cc1ccccc1)C(=O)C(=O)NC1CC1` [compound 17, ((1S)-1-((((1S)-1-Benzyl-2,3-dioxo-3-(cyclopropylamino)propyl)amino)carbonyl)-3-methylbutyl)carbamic acid 5-methoxy-3-oxapentyl ester] as the compound, how does the IC50 [1] read?
Its IC50 is 0.1 µM.

What about the “neurite elongation and cell migration (cytotoxicity)” value ([2]; 200 μM, 16 hours, FIG. 24) of the same compound?
Its value is “normal neurite elongation and cell migration were also observed, and no significant difference from the control was observed”.

What about the cell toxicity ([2]; compared with other calpain inhibitors) of the same compound?
Its cell toxicity is “did not show any cell toxicity even in a high concentration”.

And the “LIS1 protein amount in adult brain” value ([3]; 100 μg per gram of body weight IP, FIG. 8)?
Its value is “recovered to substantially the normal level”.

And the “duration of the effect on LIS1 protein after a single dose” value ([3]; 100 μg/g IP)?
The value was “continued for at least three days”.
